Results as given in PMC12295440, “C-Terminal Analogues of Camostat Retain TMPRSS2 Protease Inhibition: New Synthetic Directions for Antiviral Repurposing of Guanidinium-Based Drugs in Respiratory Infections” (International Journal of Molecular Sciences, 2025).
pIC50: −log10 of the molar value. “And” between values parts separate entries of the source, which are not always exact repeats. Equal values may be shown once.

Target: T1, TMPRSS2 (Homo sapiens, UniProt O15393)
T1 construct: purchased BPS Bioscience 780837
T1 sequence (O15393 whole entry): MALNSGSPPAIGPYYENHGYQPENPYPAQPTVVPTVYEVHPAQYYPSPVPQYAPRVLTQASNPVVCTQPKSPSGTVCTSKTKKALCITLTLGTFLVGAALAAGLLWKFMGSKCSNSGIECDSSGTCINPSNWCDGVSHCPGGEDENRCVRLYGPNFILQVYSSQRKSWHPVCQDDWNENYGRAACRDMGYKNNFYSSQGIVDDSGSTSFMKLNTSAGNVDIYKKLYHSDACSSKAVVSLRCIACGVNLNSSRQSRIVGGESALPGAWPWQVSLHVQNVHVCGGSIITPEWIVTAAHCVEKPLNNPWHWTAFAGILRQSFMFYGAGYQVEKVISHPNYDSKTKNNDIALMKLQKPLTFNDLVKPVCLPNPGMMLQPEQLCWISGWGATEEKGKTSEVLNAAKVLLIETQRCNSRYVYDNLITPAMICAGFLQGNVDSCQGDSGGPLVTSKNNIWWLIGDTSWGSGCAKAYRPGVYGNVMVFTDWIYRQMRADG
Assay: TMPRSS2 fluorogenic protease inhibition assay (BPS Bioscience kit)
Type: biochemical
Settings: for pIC50: fluorogenic substrate, 30 min pre-incubation at room temperature, average of two independent experiments in duplicate (N = 4), read-out: IC50, in vitro TMPRSS2 enzyme inhibition

| TMPRSS2 inhibition (in words) (fluorogenic assay, concentrations 0.007-0.1054 µM) | pIC50 | Structure (SMILES) |
| --- | --- | --- |
| fell out of the range of the assay | – | CN(C)C(=O)CNC(=O)Cc1ccc(NC(=O)c2ccc(NC(=N)N)cc2)cc1 [Compound 1e] |
| – | 8.75 and 8.74 | N=C(N)Nc1ccc(C(=O)Oc2ccc(CC(=O)OCC(=O)N3CCOCC3)cc2)cc1 [Compound 1d] |
| – | 8.90 and 8.89 | CNC(=O)COC(=O)Cc1ccc(OC(=O)c2ccc(NC(=N)N)cc2)cc1 [Compound 1c] |
